Our source for the TGI values is PubChem BioAssay (NCI).

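Exposure lasted 48 hours, with cells grown in 96-well plates and compounds tested at five concentrations. Definition used: TGI = concentration required for complete inhibition of growth.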

Common to all, as to experiment: growth of human tumour cells (NCI), 48 h
Assay [1] deals with SNB-75 CNS.
Assay [2] relates to IGROV1 ovarian.
Assay [3] relates to SF-539 CNS.
Assay [4] has as its system LOX IMVI melanoma.
Assay [5] relates to SK-MEL-28 melanoma.
The test system of assay [6] is MDA-N.
Assay [7] concerns RXF 393 renal.
Assay [8] deals with MDA-MB-231 breast.
Assay [9] concerns COLO 205 colon.
Assay [10] relates to SK-MEL-5 melanoma.

Take `CC(C)=CC[C@]12CCN(C)[C@H]1N(S(=O)(=O)c1ccccc1)c1ccccc12`: the TGI in assay [1] was > 100 µM; in assay [2], > 100 µM; in assay [3], > 100 µM; in assay [4], > 51.6 µM; in assay [5], > 100 µM; in assay [6] it was > 100 µM. The TGI in assay [7] was > 71.7 µM; in [8] it was > 100 µM.

For `COc1ccccc1C(=O)NCC1CCCN2CCCCC12` (centres undefined), the TGI in assay [1], in assay [9], in [2], in assay [3], in assay [4] and in [5] was > 100 µM throughout. Besides, the TGI in [6], in [7], in [10] and in assay [8] was > 100 µM each time.

For `Cc1ccc2c(c1)nc1n2C(N)=Nc2ccccc2S1`, the TGI in [1], in [9], in [2], in [3], in assay [4] and in assay [5] was > 100 µM each time. For the same compound, the TGI in [6], in assay [7], in assay [10] and in [8] was > 100 µM throughout.

Regarding `N/C1=C/C(=O)NC(=O)c2c(c3ccccc3oc2=O)C1`, the TGI in assay [1], in [9], in [2], in assay [4], in [5] and in assay [6] was > 100 µM each time. Moreover, the TGI in assay [7] and in assay [8] was > 100 µM each time.

Turning to `Cn1c(=O)c2c(nc3sc4ccccc4c(=O)n32)n(C)c1=O`, the TGI in [1], in assay [9], in assay [2], in assay [3], in assay [4] and in [5] was > 100 µM throughout. For the same compound, the TGI in assay [6], in assay [7], in assay [10] and in assay [8] was > 100 µM each time.

Turning to `CCOC(=O)C1(C#N)CC1`, the TGI in assay [1], in [9], in [2], in assay [3], in [4] and in [5] was > 100 µM throughout. The TGI in [6], in assay [7], in [10] and in assay [8] was > 100 µM in each case.

Take `C[C@@H]1CC(=O)C[C@@H]2CC[C@H]3[C@@H]4CC[C@H](OC(=O)c5cccc6cc7ccccc7nc56)[C@H]4CC[C@@H]3[C@H]21`: the TGI in assay [1] amounted to 36.5 µM; in assay [9], 53.8 µM; in [2], 19.2 µM; in assay [3], 38.6 µM; in assay [4], 39.8 µM; in [5] it was 93.3 µM. For the same compound, the TGI in [6] worked out at 26.3 µM; in assay [7], 34.9 µM; in assay [10] it was 28.3 µM; in [8], 37 µM.

As for `C/C(=N\Nc1nc2ccccc2s1)c1cc2ccccc2cn1`, the TGI is 32.4 µM in [1]; 13.3 µM in assay [9]; 16 µM in [2]; 25.6 µM in [3]; 10.4 µM in [4]; > 100 µM in [5]. The TGI in [6] was > 100 µM; in assay [7], 16 µM; in [10], 11.9 µM; in assay [8] it was 33.9 µM.

As to `COC(=O)Nc1nc2ccc(S(=O)(=O)N3CCOCC3)cc2[nH]1`, the TGI is > 100 µM in assay [1]; > 100 µM in assay [9]; > 100 µM in assay [2]; 31 µM in assay [3]; > 100 µM in [4]; > 100 µM in assay [5]. Also, the TGI in assay [6], in assay [7], in [10] and in [8] was > 100 µM throughout.

For the compound `CCCCCCCCCCCCCCCCNc1ccn(C2CC(O)C(COC(c3ccccc3)(c3ccccc3)c3ccc(OC)cc3)O2)c(=O)n1` (centres undefined), the TGI in assay [1], in assay [9], in [2], in assay [3], in assay [4] and in [5] was > 100 µM throughout. The TGI in assay [6], in assay [7], in assay [10] and in [8] was > 100 µM throughout.

In the case of `OC1COC2CC(Nc3ccccn3)OC12` (centres undefined), the TGI in assay [1], in [9], in assay [2], in assay [3], in assay [4] and in assay [5] was > 100 µM each time. Moreover, the TGI in assay [6], in assay [7], in assay [10] and in [8] was > 100 µM in each case.

For the compound `O=c1[nH]c(NCc2ccc(Cl)cc2)nc2nc[nH]c12`, the TGI in [1], in [9], in assay [2], in assay [3], in [4] and in [6] was > 100 µM each time. Further, the TGI in assay [7], in [10] and in assay [8] was > 100 µM throughout.

As to `C#CC(O)/C=C/CCCCCCC#CC/C=C\CC#CCCCCCCCCC(O)C#C` (centres undefined), the TGI in assay [1] was 23.4 µM; in assay [9] it was 7.41 µM; in assay [2] it was 1.12 µM; in assay [3], 40.4 µM; in assay [4], < 0.0261 µM; in assay [5], 13.1 µM. Also, the TGI came to 5.48 µM in assay [6], 31.6 µM in assay [7], 9.71 µM in [10] and 11.8 µM in [8].

For `CC1(C)OC2OC(C(COS(=O)(=O)C(F)(F)F)N=[N+]=[N-])C(OC(=O)c3ccccc3)C2O1` (centres undefined), the TGI in assay [1], in assay [9], in assay [3], in assay [4], in [5] and in [6] was > 100 µM each time. Further, the TGI in assay [7], in assay [10] and in [8] was > 100 µM each time.
